How the values were obtained:
[1] = molecular target: Protein farnesyltransferase (Homo sapiens, UniProt P49354+P49356); assay: Inhibition of human recombinant farnesyltransferase; assay type: protein-complex assay
[2] = Inhibition of Geranylgeranyl transferase type I

Compound `CC(=O)O[C@H]1CC[C@]2(C)[C@H]3Cc4c(O)cc(C=O)c(C=O)c4O[C@@]3(C)CC[C@H]2C1(C)C` has an IC50 [1] of 560 µM and an IC50 [2] of over 100 µM.
`CC(=O)O[C@H]1CC[C@]2(C)[C@H]3Cc4c(O)cc5c(c4O[C@@]3(C)CC[C@H]2C1(C)C)COC5=O` [KAMPANOL A] gave an IC50 [1] of 13 µM and an IC50 [2] of over 100 µM.
Work on `COC1OC(OC)c2c1cc(O)c1c2O[C@@]2(C)CC[C@H]3C(C)(C)[C@@H](OC(C)=O)CC[C@]3(C)[C@H]2C1` (stereo partly drawn) yielded an IC50 [1] of 7 µM and an IC50 [2] of over 100 µM.
`CC(=O)O[C@H]1CC[C@]2(C)[C@H]3Cc4c(O)cc(CO)c(CO)c4O[C@@]3(C)CC[C@H]2C1(C)C` showed an IC50 [1] of 460 µM and an IC50 [2] of over 100 µM.

From ChEMBL document CHEMBL1130915, “Kampanols: novel Ras farnesyl-protein transferase inhibitors from Stachybotrys kampalensis” (Bioorg Med Chem Lett, 1998)
